Values after ≈ are worked out from the molar mass of the structure shown. Where a SMILES comes first, the peptide text is derived from it. Bridges are numbered along the chain shown (N, C = ends). [ ]: non-standard residue; d: D form. The star is where a group is joined. dPhe(4-NO2) = N[C@H](Cc1ccc([N+](=O)[O-])cc1)C(=O)O; Benzoyl(4-OPh) = O=C(c1ccc(Oc2ccccc2)cc1)*; dPhe(4-Cl) = N[C@H](Cc1ccc(Cl)cc1)C(=O)O; X7 = Cc1ccc(Oc2ccc(C(=O)*)cc2)cc1; X2 = CC[C@H](C)CCCCC(=O)*; X5 = CCCCCCCC(=O)CC(=O)*; Dab = NCC[C@H](N)C(=O)O; X9 = CCCCCCC(=O)CC(=O)*; X6 = CCCC(=O)CC(=O)*; X8 = CN(C)CCCCC(=O)*; X4 = COCCCCCC(=O)*
Assays:
Assay type in all cases: cell-based
[1] = system: Staphylococcus epidermidis ATCC 12228; conditions: ATCC 12228
Method: (§1) The minimum inhibitory concentration (MIC) was determined by means of dish double dilution method using a Multipoint inoculator according to the CLSI recommended method. The compounds of the present invention (for example, the compounds prepared in the Embodiments) and the reference substances were diluted twice each time with the broth into various desired concentrations, and appropriate amounts were added to the dishes. Agar medium is melted, and then quantitatively injected into the dish containing the drug solution, and mixed. The final concentrations of the compounds of the invention (e.g., the compounds prepared in the Embodiments) and the controls were 0.03, 0.06, 0.125, 0.25 . . . 128 μg/mL, respectively. The test bacteria were cultured overnight with nutrient broth, brain heart infusion or HTM broth. During the tests, the bacterial solutions were diluted appropriately, and the test bacteria (inoculation amount 10^4 CFU/dot) were inoculated on the surface of the drug-containing agar by a multi-point inoculator. After drying, the bacterial was incubated for 18 to 24 hours at 35° C., the results were observed, the minimum concentrations of the compounds of the present invention (for example, the compounds prepared in the Embodiments) and the controls contained in the dishes with no growth of colonies were MICs.
(§2) The strains used in the antibacterial activity experiments were from the American Type Culture Collection (ATCC) and clinical isolates.
(§3) The strains used for the experiments on antibacterial activity included Escherichia coli ATCC 25922, Klebsiella pneumoniae ATCC BAA-2146 (NDM-1), Pseudomonas aeruginosa ATCC 27853, Acinetobacter baumannii ATCC 19606 and Staphylococcus epidermidis ATCC 12228.
(§4) Tested samples: polymyxin derivatives prepared according to the technical scheme of the present invention;
(§5) Controls: polymyxin B sulfate and colistin (polymyxin E sulfate).

[2] = system: Escherichia coli ATCC 25922; conditions: ATCC 25922
Method: as §1, §2, §3, §4, §5

[3] = system: Pseudomonas aeruginosa ATCC 27853; conditions: ATCC 27853
Method: as §1, §2, §3, §4, §5

[4] = system: Acinetobacter baumannii ATCC 19606; conditions: ATCC 19606
Method: as §1, §2, §3, §4, §5

[5] = system: Klebsiella pneumoniae ATCC BAA-2146 (NDM-1); assay: Antibacterial activity, MIC by dish double dilution method; conditions: ATCC BAA-2146
Method: as §1, §2, §3, §4, §5

For COCCCCCC(=O)N[C@@H](CCN)C(=O)N[C@H](C(=O)N[C@@H](CCN)C(=O)N[C@H]1CCNC(=O)[C@H]([C@@H](C)O)NC(=O)[C@H](CCN)NC(=O)[C@H](CCN)NC(=O)[C@H](CC(C)C)NC(=O)[C@@H](Cc2ccccc2)NC(=O)[C@H](CCN)NC1=O)[C@@H](C)O [Compound 1, 6-methoxycaproyl-Dab-Thr-Dab-ring(4-10)[Dab-Dab-D-Phe-Lue-Dab-Dab-Thr]] (X4-[Dab]T[Dab][Dab][Dab][dF]L[Dab][Dab]T; lactam 4-C), the “MIC S. epidermidis ATCC 12228” value [1] was >128 µg/mL, the “MIC E. coli ATCC 25922” value [2] was 1 µg/mL (≈ 0.839 µM) and the “MIC P. aeruginosa ATCC 27853” value [3] was 1 µg/mL (≈ 0.839 µM). The “MIC A. baumannii ATCC 19606” value [4] was 2 µg/mL (≈ 1.68 µM) and the “MIC K. pneumoniae ATCC BAA-2146 (NDM-1)” value [5] was 4 µg/mL (≈ 3.36 µM).

CC(C)C[C@@H]1NC(=O)[C@@H](Cc2ccccc2)NC(=O)[C@H](CCN)NC(=O)[C@@H](NC(=O)[C@H](CCN)NC(=O)[C@@H](NC(=O)[C@H](CCN)NC(=O)CCCCN(C)C)[C@@H](C)O)CCNC(=O)[C@H]([C@@H](C)O)NC(=O)[C@H](CCN)NC(=O)[C@H](CCN)NC1=O [Compound 2, N,N-dimethylaminovaleryl-Dab-Thr-Dab-ring(4-10)[Dab-Dab-D-Phe-Lue-Dab-Dab-Thr]] (X8-[Dab]T[Dab][Dab][Dab][dF]L[Dab][Dab]T; lactam 4-C) was tested, and the “MIC S. epidermidis ATCC 12228” value [1] was >128 µg/mL, the “MIC E. coli ATCC 25922” value [2] was 16 µg/mL (≈ 13.4 µM) and the “MIC P. aeruginosa ATCC 27853” value [3] was 1 µg/mL (≈ 0.84 µM). For the same compound, the “MIC A. baumannii ATCC 19606” value [4] was 8 µg/mL (≈ 6.72 µM) and the “MIC K. pneumoniae ATCC BAA-2146 (NDM-1)” value [5] was 128 µg/mL (≈ 108 µM).

With CCCC(=O)CC(=O)N[C@@H](CCN)C(=O)N[C@H](C(=O)N[C@@H](CCN)C(=O)N[C@H]1CCNC(=O)[C@H]([C@@H](C)O)NC(=O)[C@H](CCN)NC(=O)[C@H](CCN)NC(=O)[C@H](CC(C)C)NC(=O)[C@@H](Cc2ccccc2)NC(=O)[C@H](CCN)NC1=O)[C@@H](C)O [Compound 3, 3-oxocaproyl-Dab-Thr-Dab-ring(4-10)[Dab-Dab-D-Phe-Lue-Dab-Dab-Thr]] (X6-[Dab]T[Dab][Dab][Dab][dF]L[Dab][Dab]T; lactam 4-C) the “MIC S. epidermidis ATCC 12228” value [1] was 128 µg/mL (≈ 109 µM), the “MIC E. coli ATCC 25922” value [2] was 0.5 µg/mL (≈ 0.425 µM) and the “MIC P. aeruginosa ATCC 27853” value [3] was 2 µg/mL (≈ 1.7 µM). The “MIC A. baumannii ATCC 19606” value [4] was 8 µg/mL (≈ 6.81 µM) and the “MIC K. pneumoniae ATCC BAA-2146 (NDM-1)” value [5] was 2 µg/mL (≈ 1.7 µM).

With CCCCCCC(=O)CC(=O)N[C@@H](CCN)C(=O)N[C@H](C(=O)N[C@@H](CCN)C(=O)N[C@H]1CCNC(=O)[C@H]([C@@H](C)O)NC(=O)[C@H](CCN)NC(=O)[C@H](CCN)NC(=O)[C@H](CC(C)C)NC(=O)[C@@H](Cc2ccccc2)NC(=O)[C@H](CCN)NC1=O)[C@@H](C)O [Compound 6, 3-oxononanoyl-Dab-Thr-Dab-ring(4-10)[Dab-Dab-D-Phe-Lue-Dab-Dab-Thr]] (X9-[Dab]T[Dab][Dab][Dab][dF]L[Dab][Dab]T; lactam 4-C) the “MIC S. epidermidis ATCC 12228” value [1] was 16 µg/mL (≈ 13.1 µM), the “MIC E. coli ATCC 25922” value [2] was 1 µg/mL (≈ 0.821 µM) and the “MIC P. aeruginosa ATCC 27853” value [3] was 2 µg/mL (≈ 1.64 µM). For the same compound, the “MIC A. baumannii ATCC 19606” value [4] was 2 µg/mL (≈ 1.64 µM) and the “MIC K. pneumoniae ATCC BAA-2146 (NDM-1)” value [5] was 1 µg/mL (≈ 0.821 µM).

CCCCCCCC(=O)CC(=O)N[C@@H](CCN)C(=O)N[C@H](C(=O)N[C@@H](CCN)C(=O)N[C@H]1CCNC(=O)[C@H]([C@@H](C)O)NC(=O)[C@H](CCN)NC(=O)[C@H](CCN)NC(=O)[C@H](CC(C)C)NC(=O)[C@@H](Cc2ccccc2)NC(=O)[C@H](CCN)NC1=O)[C@@H](C)O [Compound 7, 3-oxodecanoyl-Dab-Thr-Dab-ring(4-10)[Dab-Dab-D-Phe-Lue-Dab-Dab-Thr]] (X5-[Dab]T[Dab][Dab][Dab][dF]L[Dab][Dab]T; lactam 4-C) was tested, and the “MIC S. epidermidis ATCC 12228” value [1] was 32 µg/mL (≈ 26 µM), the “MIC E. coli ATCC 25922” value [2] was 2 µg/mL (≈ 1.62 µM) and the “MIC P. aeruginosa ATCC 27853” value [3] was 4 µg/mL (≈ 3.25 µM). For the same compound, the “MIC A. baumannii ATCC 19606” value [4] was 2 µg/mL (≈ 1.62 µM) and the “MIC K. pneumoniae ATCC BAA-2146 (NDM-1)” value [5] was 2 µg/mL (≈ 1.62 µM).

In the case of CC(C)C[C@@H]1NC(=O)[C@@H](Cc2ccccc2)NC(=O)[C@H](CCN)NC(=O)[C@@H](NC(=O)[C@H](CCN)NC(=O)[C@@H](NC(=O)[C@H](CCN)NC(=O)c2ccc(Oc3ccccc3)cc2)[C@@H](C)O)CCNC(=O)[C@H]([C@@H](C)O)NC(=O)[C@H](CCN)NC(=O)[C@H](CCN)NC1=O [Compound 8, 4-(phenoxy)benzoyl-Dab-Thr-Dab-ring(4-10)[Dab-Dab-D-Phe-Lue-Dab-Dab-Thr]] ({Benzoyl(4-OPh)}-[Dab]T[Dab][Dab][Dab][dF]L[Dab][Dab]T; lactam 4-C), the “MIC S. epidermidis ATCC 12228” value [1] was 16 µg/mL (≈ 12.7 µM), the “MIC E. coli ATCC 25922” value [2] was 4 µg/mL (≈ 3.18 µM) and the “MIC P. aeruginosa ATCC 27853” value [3] was 8 µg/mL (≈ 6.35 µM). The “MIC A. baumannii ATCC 19606” value [4] was 2 µg/mL (≈ 1.59 µM) and the “MIC K. pneumoniae ATCC BAA-2146 (NDM-1)” value [5] was 4 µg/mL (≈ 3.18 µM).

In the case of Cc1ccc(Oc2ccc(C(=O)N[C@@H](CCN)C(=O)N[C@H](C(=O)N[C@@H](CCN)C(=O)N[C@H]3CCNC(=O)[C@H]([C@@H](C)O)NC(=O)[C@H](CCN)NC(=O)[C@H](CCN)NC(=O)[C@H](CC(C)C)NC(=O)[C@@H](Cc4ccccc4)NC(=O)[C@H](CCN)NC3=O)[C@@H](C)O)cc2)cc1 [Compound 9, 4-(p-methylphenoxy)benzoyl-Dab-Thr-Dab-ring(4-10)[Dab-Dab-D-Phe-Lue-Dab-Dab-Thr]] (X7-[Dab]T[Dab][Dab][Dab][dF]L[Dab][Dab]T; lactam 4-C), the “MIC S. epidermidis ATCC 12228” value [1] was 8 µg/mL (≈ 6.28 µM), the “MIC E. coli ATCC 25922” value [2] was 4 µg/mL (≈ 3.14 µM) and the “MIC P. aeruginosa ATCC 27853” value [3] was 4 µg/mL (≈ 3.14 µM). For the same compound, the “MIC A. baumannii ATCC 19606” value [4] was 4 µg/mL (≈ 3.14 µM) and the “MIC K. pneumoniae ATCC BAA-2146 (NDM-1)” value [5] was 4 µg/mL (≈ 3.14 µM).

For CC[C@H](C)CCCCC(=O)N[C@@H](CCN)C(=O)N[C@H](C(=O)N[C@@H](CCN)C(=O)N[C@H]1CCNC(=O)[C@H]([C@@H](C)O)NC(=O)[C@H](CCN)NC(=O)[C@H](CCN)NC(=O)[C@H](CC(C)C)NC(=O)[C@@H](Cc2ccc(O)cc2)NC(=O)[C@H](CCN)NC1=O)[C@@H](C)O [Compound 12, (S)-6-methyloctanoyl-Dab-Thr-Dab-ring(4-10)[Dab-Dab-D-Tyr-Lue-Dab-Dab-Thr]] (X2-[Dab]T[Dab][Dab][Dab][dY]L[Dab][Dab]T; lactam 4-C), the “MIC S. epidermidis ATCC 12228” value [1] was 128 µg/mL (≈ 105 µM), the “MIC E. coli ATCC 25922” value [2] was 2 µg/mL (≈ 1.64 µM) and the “MIC P. aeruginosa ATCC 27853” value [3] was 1 µg/mL (≈ 0.82 µM). The “MIC A. baumannii ATCC 19606” value [4] was 2 µg/mL (≈ 1.64 µM) and the “MIC K. pneumoniae ATCC BAA-2146 (NDM-1)” value [5] was 2 µg/mL (≈ 1.64 µM).

CC[C@H](C)CCCCC(=O)N[C@@H](CCN)C(=O)N[C@H](C(=O)N[C@@H](CCN)C(=O)N[C@H]1CCNC(=O)[C@H]([C@@H](C)O)NC(=O)[C@H](CCN)NC(=O)[C@H](CCN)NC(=O)[C@H](CC(C)C)NC(=O)[C@@H](Cc2ccc([N+](=O)[O-])cc2)NC(=O)[C@H](CCN)NC1=O)[C@@H](C)O [Compound 14, (S)-6-methyloctanoyl-Dab-Thr-Dab-ring(4-10)[Dab-Dab-D-Phe(4-NO2)-Lue-Dab-Dab-Thr]] (X2-[Dab]T[Dab][Dab][Dab][dPhe(4-NO2)]L[Dab][Dab]T; lactam 4-C) was tested, and the “MIC S. epidermidis ATCC 12228” value [1] was 8 µg/mL (≈ 6.41 µM), the “MIC E. coli ATCC 25922” value [2] was 1 µg/mL (≈ 0.801 µM) and the “MIC P. aeruginosa ATCC 27853” value [3] was 2 µg/mL (≈ 1.6 µM). The “MIC A. baumannii ATCC 19606” value [4] was 1 µg/mL (≈ 0.801 µM) and the “MIC K. pneumoniae ATCC BAA-2146 (NDM-1)” value [5] was 2 µg/mL (≈ 1.6 µM).

In the case of CC[C@H](C)CCCCC(=O)N[C@@H](CCN)C(=O)N[C@H](C(=O)N[C@@H](CCN)C(=O)N[C@H]1CCNC(=O)[C@H]([C@@H](C)O)NC(=O)[C@H](CCN)NC(=O)[C@H](CCN)NC(=O)[C@H](CC(C)C)NC(=O)[C@@H](Cc2ccc(Cl)cc2)NC(=O)[C@H](CCN)NC1=O)[C@@H](C)O [Compound 16, (S)-6-methyloctanoyl-Dab-Thr-Dab-ring(4-10)[Dab-Dab-D-Phe(4-Cl)-Lue-Dab-Dab-Thr]] (X2-[Dab]T[Dab][Dab][Dab][dPhe(4-Cl)]L[Dab][Dab]T; lactam 4-C), the “MIC S. epidermidis ATCC 12228” value [1] was 16 µg/mL (≈ 12.9 µM), the “MIC E. coli ATCC 25922” value [2] was 1 µg/mL (≈ 0.808 µM) and the “MIC P. aeruginosa ATCC 27853” value [3] was 2 µg/mL (≈ 1.62 µM). The “MIC A. baumannii ATCC 19606” value [4] was 1 µg/mL (≈ 0.808 µM) and the “MIC K. pneumoniae ATCC BAA-2146 (NDM-1)” value [5] was 2 µg/mL (≈ 1.62 µM).
